Columns and labels:
[1] = target: T1, VEGFR2 (KDR) (Homo sapiens, UniProt P35968); assay: In Vitro Receptor Tyrosine Kinase Assay (VEGF receptor KDR), DELFIA; assay type: biochemical; conditions: recombinant GST-VEGFR2 806-1356, enzyme 5 nM, ATP 0.6 uM (2x Km), poly(Glu4,Tyr) substrate; read-out: VEGFR_IC50_UM
T1 construct: made in house; host or cells: Sf9 cells (Spodoptera frugiperda), recombinant baculovirus
Source text: This test measures the ability of compounds to inhibit the enzymatic activity of recombinant human VEGF receptor enzymatic activity.
A 1.6-kb cDNA corresponding to the catalytic domain of VEGFR2 (KDR) (Genbank accession number AF035121 amino acid 806 to 1356) is cloned into the Pst I site of the pDEST20 Gateway vector (Invitrogen) for the production of a GST-tagged version of that enzyme. This construct is used to generate recombinant baculovirus using the Bac-to-Bac™ system according to the manufacturer's instructions (Invitrogen).
The GST-VEGFR2806-1356 protein is expressed in Sf9 cells (Spodoptera frugiperda) upon infection with recombinant baculovirus construct. Briefly, Sf9 cells grown in suspension and maintained in serum-free medium (Sf900 II supplemented with gentamycin) at a cell density of about 2×10^6 cells/ml are infected with the above-mentioned viruses at a multiplicity of infection (MOI) of 0.1 during 72 hours at 27° C. with agitation at 120 rpm on a rotary shaker. Infected cells are harvested by centrifugation at 398 g for 15 min. Cell pellets are frozen at −80° C. until purification is performed.
All steps described in cell extraction and purification are performed at 4° C. Frozen Sf9 cell pellets infected with the GST-VEGFR2806-1356 recombinant baculovirus are thawed and gently resuspended in Buffer A (PBS pH 7.3 supplemented with 1 μg/ml pepstatin, 2 μg/ml Aprotinin and leupeptin, 50 μg/ml PMSF, 50 μg/ml TLCK and 10 μM E64 and 0.5 mM DTT) using 3 ml of buffer per gram of cells. Suspension is Dounce homogenized and 1% Triton X-100 is added to the homogenate after which it is centrifuged at 22500 g, 30 min., 4° C. The supernatant (cell extract) is used as starting material for purification of GST-VEGFR2806-1356.
The supernatant is loaded onto a GST-agarose column (Sigma) equilibrated with PBS pH 7.3. Following a four column volume (CV) wash with PBS pH 7.3+1% Triton X-100 and 4 CV wash with buffer B (50 mM Tris pH 8.0, 20% glycerol and 100 mM NaCl), bound proteins are step eluted with 5 CV of buffer B supplemented with 5 mM DTT and 15 mM glutathion. GST-VEGFR2806-1356 enriched fractions from this chromatography step are pooled based on U.V. trace i.e. fractions with high O.D.280. Final GST-VEGFR2806-1356 protein preparations concentrations are about 0.7 mg/ml with purity approximating 70%. Purified GST-VEGFR2806-1356 protein stocks are aliquoted and frozen at −80° C. prior to use in enzymatic assay.
Inhibition of VEGFR/KDR is measured in a DELFIA™ assay (Perkin Elmer). The substrate poly(Glu4, Tyr) is immobilized onto black high-binding polystyrene 96-well plates. The coated plates are washed and stored at 4° C. During the assay, the enzyme is pre-incubated with inhibitor and Mg-ATP on ice in polypropylene 96-well plates for 4 minutes, and then transferred to the coated plates. The subsequent kinase reaction takes place at 30° C. for 10-30 minutes. ATP concentrations in the assay are 0.6 uM for VEGFR/KDR (2× the Km). Enzyme concentration is 5 nM. After incubation, the kinase reactions are quenched with EDTA and the plates are washed. Phosphorylated product is detected by incubation with Europium-labeled anti-phosphotyrosine MoAb. After washing the plates, bound MoAb is detected by time-resolved fluorescence in a Gemini SpectraMax reader (Molecular Devices). Compounds are evaluated over a range of concentrations, and IC50 values (concentration of compounds giving 50% inhibition of enzymatic activity) are determined.

[2] = tested on: VEGF-dependent phospho ERK1/2 (T202/Y204) in HUVEC cells; assay: VEGF-Dependent Erk Phosphorylation in HUVEC cells; assay type: cell-based; conditions: Homo sapiens, 1.5 h compound exposure, VEGF165 150 ng/ml, Western blot densitometry, read-out: P_ERK_IC50_UM
Source text: HUVEC cells are purchased from Cambrex Bio Science Walkersville, Inc and cultured according to the vendor's instructions. The full-length coding sequence of VEGF165 is cloned using the Gateway Cloning Technology (Invitrogen) for baculovirus expression Sf9 cells. VEGF165 is purified from conditioned media using a NaCl gradient elution from a HiTrap heparin column (GE Healthcare Life Sciences) followed by an imidazole gradient elution from a HiTrap chelating column (GE Healthcare Life Sciences), then buffer stored in PBS supplemented with 0.1% BSA and filter sterilized
Cells are seeded at 8000 cells/well of a 96 wells plate and grown for 48 hours. Cells are then grown overnight in serum and growth factor-free medium and exposed for 1.5 h to compounds dilutions. Following a 15 min incubation in medium, VEGF165 (150 ng/ml) cells are lysed in ice-cold lysis buffer (50 mM HEPES, pH 7.4, 150 mM NaCl, 1.5 mM MgCl2, 1% Triton X-100, 10% glycerol) containing 1 mM 4-(2 aminoethyl)benzenesulfonyl fluoride hydrochloride, 200 μM sodium orthovanadate, 1 mM sodium fluoride, 10 μg/mL leupeptin, 10 μg/mL aprotinin, 1 μg/mL pepstatin and 50 μg/mL Na-p-tosyl-L-lysine chloromethyl ketone hydrochloride and processed as Western blots to detect anti-phospho ERK1/2 (T202/Y204)(Cell Signaling Technologies). […]

T1 sequence (P35968 806-1356): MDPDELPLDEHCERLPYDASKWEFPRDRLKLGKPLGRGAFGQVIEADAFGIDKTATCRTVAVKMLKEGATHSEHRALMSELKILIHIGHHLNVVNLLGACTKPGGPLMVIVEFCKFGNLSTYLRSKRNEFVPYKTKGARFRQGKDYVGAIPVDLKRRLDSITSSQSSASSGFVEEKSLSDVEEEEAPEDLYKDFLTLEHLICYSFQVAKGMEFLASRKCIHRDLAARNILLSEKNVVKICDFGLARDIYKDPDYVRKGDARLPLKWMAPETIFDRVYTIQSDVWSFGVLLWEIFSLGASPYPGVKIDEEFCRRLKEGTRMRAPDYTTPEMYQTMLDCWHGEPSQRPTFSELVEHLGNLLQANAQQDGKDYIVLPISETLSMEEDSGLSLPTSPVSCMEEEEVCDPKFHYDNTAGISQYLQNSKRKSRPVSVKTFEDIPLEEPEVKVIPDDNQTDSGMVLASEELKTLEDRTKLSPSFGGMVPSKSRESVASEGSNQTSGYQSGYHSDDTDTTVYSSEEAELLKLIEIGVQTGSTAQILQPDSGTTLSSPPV

SMILES	IC50 [1]	IC50 [2]
O=C(CO)NC1CCN(Cc2ccc(-c3cc4nccc(Oc5ccc6oc(Nc7ccc(Cl)cc7)nc6c5)c4s3)nc2)CC1 [Compound 12, N-(1-((6-(7-(2-(4-Chlorophenylamino)benzo[d]oxazol-5-yloxy)thieno[3,2-b]pyridin-2-yl)pyridin-3-yl)methyl)piperidin-4-yl)-2-hydroxyacetamide]	6 nM	
CCNC(=O)NC1CCN(Cc2ccc(-c3cc4nccc(Oc5ccc6oc(Nc7ccc(Cl)cc7)nc6c5)c4s3)nc2)CC1 [Compound 13]	7 nM	
CN(C(=O)CO)C1CCN(Cc2ccc(-c3cc4nccc(Oc5ccc6oc(Nc7ccc(Cl)cc7)nc6c5)c4s3)nc2)CC1 [Compound 14]	5 nM	
CCNC(=O)N(C)C1CCN(Cc2ccc(-c3cc4nccc(Oc5ccc6oc(Nc7ccc(Cl)cc7)nc6c5)c4s3)nc2)CC1 [Compound 15]	7 nM	
CCN(CC)CCNC(=O)c1ccc(NCc2ccc(-c3cc4nccc(Oc5ccc6oc(Nc7ccc(Cl)cc7)nc6c5)c4s3)nc2)cc1 [Compound 16, 4-((6-(7-(2-(4-Chlorophenylamino)benzo[d]oxazol-5-yloxy)thieno[3,2-b]pyridin-2-yl)pyridin-3-yl)methyl)amino-N-(2-(diethylamino)ethyl)benzamide]	16 nM	
Clc1ccc(Nc2nc3cc(Oc4ccnc5cc(-c6ccc(CNc7cc[nH]n7)cn6)sc45)ccc3o2)cc1 [Compound 17]	41.3 nM	
Clc1ccc(Nc2nc3cc(Oc4ccnc5cc(-c6ccc(CNc7ccc(OCCN8CCOCC8)cc7)cn6)sc45)ccc3o2)cc1 [Compound 18]	23 nM	
Clc1ccc(Nc2nc3cc(Oc4ccnc5cc(-c6ccc(CNc7cccc(OCCN8CCOCC8)c7)cn6)sc45)ccc3o2)cc1 [Compound 19]	12 nM	
CCn1cc(CN(Cc2ccc(-c3cc4nccc(Oc5ccc6oc(Nc7ccc(Cl)cc7)nc6c5)c4s3)nc2)C(C)C)nn1 [Compound 21, N-(4-Chlorophenyl)-5-(2-(5-((((1-ethyl-1H-1,2,3-triazol-4-yl)methyl)(isopropyl)amino)methyl)pyridin-2-yl)thieno[3,2-b]pyridin-7-yloxy)benzo[d]oxazol-2-amine]	8 nM	
O=C1CCCN1Cc1ccc(-c2cc3nccc(Oc4ccc5oc(Nc6ccc(Cl)cc6)nc5c4)c3s2)nc1 [Compound 46, 1-((6-(7-(2-(4-Chlorophenylamino)benzo[d]oxazol-5-yloxy)thieno[3,2-b]pyridin-2-yl)pyridin-3-yl)methyl)pyrrolidin-2-one]	5 nM	
O=C1CCCN1Cc1ccc(-c2cc3nccc(Oc4ccc5oc(NC6CC6)nc5c4)c3s2)nc1 [Compound 47]	1560 nM	120 nM
O=C1CCCN1Cc1ccc(-c2cc3nccc(Oc4ccc5oc(Nc6cccc(Cl)c6)nc5c4)c3s2)nc1 [Compound 49]	2 nM	
O=C1CCCN1Cc1ccc(-c2cc3nccc(Oc4ccc5nc(Nc6cccc(Cl)c6)oc5c4)c3s2)nc1 [Compound 50]	434 nM	
O=C1CCCN1Cc1ccc(-c2cc3nccc(Oc4ccc5nc(Nc6ccc(Cl)cc6)oc5c4)c3s2)nc1 [Compound 51]	278 nM	

Now from value to compound, other results behind:

IC50 [1]	SMILES	IC50 [2]
6 nM	O=C1CCCN1Cc1ccc(-c2cc3nccc(Oc4ccc5oc(Nc6ccc(C(F)(F)F)cc6)nc5c4)c3s2)nc1 [Compound 52]	
3 nM	COc1ccc(Nc2nc3cc(Oc4ccnc5cc(-c6ccc(CN7CCCC7=O)cn6)sc45)ccc3o2)cc1 [Compound 53]	
139 nM	O=C1CCCN1Cc1ccc(-c2cc3nccc(Oc4ccc5oc(Nc6ccccc6Cl)nc5c4)c3s2)nc1 [Compound 54]	
14 nM	O=C1CCCN1Cc1ccc(-c2cc3nccc(Oc4ccc5oc(Nc6ccc(F)cc6)nc5c4)c3s2)nc1 [Compound 55]	
29 nM	O=C1CCCN1Cc1ccc(-c2cc3nccc(Oc4ccc5oc(Nc6cccc(F)c6)nc5c4)c3s2)nc1 [Compound 56]	
18 nM	O=C1CCCN1Cc1ccc(-c2cc3nccc(Oc4ccc5oc(Nc6ccc(Cl)c(C(F)(F)F)c6)nc5c4)c3s2)nc1 [Compound 57]	
240 nM	O=C(c1cc2nccc(Oc3ccc4oc(Nc5ccccc5)nc4c3)c2s1)N1CCCCC1 [Compound 59]	
19 nM	CN(C)[C@H]1CCN(C(=O)c2cc3nccc(Oc4ccc5oc(Nc6ccccc6)nc5c4)c3s2)C1 [Compound 61]	
4 nM	COCCN(Cc1ccc(-c2cc3nccc(Oc4ccc5oc(Nc6ccc(Cl)cc6)nc5c4)c3s2)nc1)C(C)=O [Compound 62]	
1580 nM	COCCN(Cc1ccc(-c2cc3nccc(Oc4ccc5oc(NC6CC6)nc5c4)c3s2)nc1)C(C)=O [Compound 63]	
47 nM	COCCN(Cc1ccc(-c2cc3nccc(Oc4ccc5oc(Nc6ccccc6)nc5c4)c3s2)nc1)C(C)=O [Compound 64]	
232 nM	CC(C)(C)OC(=O)N1CCN(Cc2ccc(-c3cc4nccc(Oc5ccc6oc(Nc7ccc(Cl)cc7)nc6c5)c4s3)nc2)CC1 [Compound 65]	

— patent US20130096136A1, “Inhibitors of Protein Tyrosine Kinase Activity” (METHYLGENE INC., priority 2011, published 2013)
